Experimental data published in PMC7664879, “Discovery of 12O—A Novel Oral Multi-Kinase Inhibitor for the Treatment of Solid Tumor” (Molecules, 2020).

How the values were obtained:
[1] = tested on: SKOV3; assay: CCK-8 cell growth inhibition, SKOV3; assay type: cell-based, human; conditions: CCK-8 assay, 72-h incubation; read-out: Cell Lines IC50 SKOV3
Procedure: (§1) In vitro anticancer screening of all newly synthesized compounds towards human solid tumor cells, cervical (SiHa) and ovarian (SKOV3) cancer cell lines, was carried out by standard CCK-8 assay with cisplatin as the positive control, as cisplatin is one of the most used chemotherapy drugs. […] The compound was further evaluated in a dose response study against a panel of solid tumor cells, including cervical cancer cell lines (SiHa and HeLa), ovarian cancer cell lines (SKOV3 and OVCAR-5), breast cancer cell lines (4T1 and MCF-7), lung cancer cell lines (A549 and H460) to test cytotoxic activity. The IC50 values were summarized in Table 2, including the cytotoxic activity of the cisplatin used as reference compound.
(§2) The viability of cells as determined using the CCK8 assay method. Cells were seeded (2000–3000 cells per well) in 96-well plates. After incubation for 24 h in serum-containing media, the cells were treated with drugs at different concentrations diluted with culture medium for 72 h at 37 °C with a 5% CO2 atmosphere. Then, 10 μL CCK8 regent (Promega, WI) was added to each well, and the plates were incubated for 1–4 h at 37 °C. Finally, absorbance values of test wells (AS), control wells (AC) and blank wells (Ab) at 450 nm were read using the Microplate Reader (Promega, WI). Inhibition ratios were calculated as follows: [(AC − AS)/ (AC−Ab)] × 100%. IC50 values were calculated using GraphPad software.

[2] = tested on: SiHa; assay: CCK-8 cell growth inhibition, SiHa; assay type: cell-based, human; conditions: CCK-8 assay, 72-h incubation; read-out: Cell Lines IC50 SiHa
Procedure: as §1, §2

[3] = tested on: HeLa; assay: CCK-8 cell growth inhibition, HeLa; assay type: cell-based, human; conditions: cervical cancer; CCK-8 assay, 72-h incubation
Procedure: as §1
as §2, with “Then, 10 μL CCK8 regent (Promega, WI) was added to each well, and the plates were incubated for 1–4 h at 37 °C.” left out

[4] = tested on: MCF-7; assay: CCK-8 cell growth inhibition, MCF-7; assay type: cell-based, human; conditions: breast cancer; CCK-8 assay, 72-h incubation
Procedure: as §1
as §2, with “Then, 10 μL CCK8 regent (Promega, WI) was added to each well, and the plates were incubated for 1–4 h at 37 °C.” left out

[5] = tested on: 4T1; assay: CCK-8 cell growth inhibition, 4T1; assay type: cell-based; conditions: breast cancer; CCK-8 assay, 72-h incubation
Procedure: as §1
as §2, with “Then, 10 μL CCK8 regent (Promega, WI) was added to each well, and the plates were incubated for 1–4 h at 37 °C.” left out

[6] = tested on: OVCAR-5; assay: CCK-8 cell growth inhibition, OVCAR-5; assay type: cell-based, human; conditions: ovarian cancer; CCK-8 assay, 72-h incubation
Procedure: as §1
as §2, with “Then, 10 μL CCK8 regent (Promega, WI) was added to each well, and the plates were incubated for 1–4 h at 37 °C.” left out

[7] = tested on: A549; assay: CCK-8 cell growth inhibition, A549; assay type: cell-based, human; conditions: lung cancer; CCK-8 assay, 72-h incubation
Procedure: as §1
as §2, with “Then, 10 μL CCK8 regent (Promega, WI) was added to each well, and the plates were incubated for 1–4 h at 37 °C.” left out

[8] = tested on: H460; assay: CCK-8 cell growth inhibition, H460; assay type: cell-based, human; conditions: lung cancer; CCK-8 assay, 72-h incubation
Procedure: as §1
as §2, with “Then, 10 μL CCK8 regent (Promega, WI) was added to each well, and the plates were incubated for 1–4 h at 37 °C.” left out

[9] = tested on: SiHa xenograft; assay: SiHa xenograft mouse model, oral dosing; assay type: in vivo; conditions: SiHa xenograft mice, 20 mg/kg oral, every day
Procedure: Based on a desirable set of in vitro properties, 12O was finally selected for further in vivo evaluation. We proceeded to test the antitumor efficacy of 12O in SiHa xenograft mice. Animals were orally given three doses (5, 10, and 20 mg Kg^−1) of 12O, one dose (20 mg Kg^−1) of cisplatin (positive control), or vehicle (control) every day. […] Of note, In Figure 5c, an obvious decrease in tumor size was also observed at the end of observation. The average tumor weight (Figure 5d) of the 12O-treated group was less than that of cisplatin. HE staining was further performed to identify the efficacy of 12O (Figure 5e). […] Additional kinase activities of 12O intimately associated with the growth, survival, and metastasis in tumor cells, may contribute to the antitumor activity, but may also cause side effects. Multi-target kinase inhibitor extensively used in clinic cancer therapy, while hampered by associated adverse reactions and side-effect. Thus, further evidence is needed. An in-depth study of compound 12O is ongoing in our laboratory and will be reported in due course.
All animal studies were conducted under the approval of the Experimental Animal Management Committee of Nankai University (No. NKUEC20190228). Six- to eight-week-old female BALB/c nude mice were purchased from Beijing HFK Bioscience Company. Mice were fed in an SPF-level laboratory animal room. The mice were kept in independent ventilation cages with autoclaved corncobs at the bottom of the cage as bedding. The dimensions of the cages were 390 × 180 × 180 mm. Environmental factors: Average air temperature ranged from 20 to 26 °C with average relative air humidity ranging from 40 to 70%. Noise was below 60 decibels. Ventilation times were more than 15 times/hour. Air velocity was 0.1~0.2m/s. The ammonia concentration was below 14/(mg/m³). Working illumination was 150~300LX and animal illumination was 15~20LX. The nutritional components of mouse food include: water content: ≤10%, crude protein: ≥18%, crude fat: ≥4%, crude fiber: ≥5%, minerals: ≥4%, calcium: 1.0–1.8%, Phosphorus: 0.6-1.2%. The water that mice drink is sterilized by the animal drinking system.
Cells SiHa were harvested during the exponential-growth phase, washed 3 times with serum-free medium, followed by resuspension at a concentration of 2 × 10^6 per mL. A total of 100 μL of cell suspension was injected into SCID mice subcutaneously. After the tumors had grown to 100−150 mm^3, all the mice were randomized into 5 groups (5 mice for each group, 25 mice total). The mice were treated daily via oral gavage administration with 12O (5, 10, or 20 mg kg^−1 d^−1), cisplatin (20 mg kg^−1 d^−1), or vehicle. […] Mice were monitored for side effects every day. Body weights and tumor sizes were determined every other day and volume was also observed. At the end-point of the study, all mice had survived. Mice were euthanized and the subcutaneous tumor tissues were stripped and collected. Tumor measurements were calculated using a digital vernier caliper, and the volumes were determined using the following calculation: (short^2) × long × 0.5. Inhibition rate of tumor growth was calculated using the following formula: 100 × {1 − [(tumor volume final-tumor volume initial) for 12O-treated group]/ [(tumor volume final-tumor volume initial) for the vehicle-treated group]} [23].

| IC50 [1] [nM] | Molecule | IC50 [2] [nM] | further results |
| --- | --- | --- | --- |
| 199 | N-(4-((5-fluoro-4-(1-isopropyl-1H-benzo[d](1,2,3)triazol-6-yl)pyrimidin-2-yl)amino)benzyl)-N-(4-fluorophenyl)cyclopropane-1,1-dicarboxamide [12B] | 28 | – |
| 108 | N-(3-cyanophenyl)-N-(4-((5-fluoro-4-(1-isopropyl-1H-benzo[d](1,2,3)triazol-6-yl)pyrimidin-2-yl)amino)benzyl)cyclopropane-1,1-dicarboxamide [12K] | 83 | – |
| 137 | N-(4-((5-fluoro-4-(1-isopropyl-1H-benzo[d](1,2,3)triazol-6-yl)pyrimidin-2-yl)amino)benzyl)-N-(p-tolyl)cyclopropane-1,1-dicarboxamide [12J] | 74 | – |
| 778 | N-(3-bromophenyl)-N-(4-((5-fluoro-4-(1-isopropyl-1H-benzo[d](1,2,3)triazol-6-yl)pyrimidin-2-yl)amino)benzyl)cyclopropane-1,1-dicarboxamide [12E] | 66 | – |
| 915 | N-(4-chloro-3-(trifluoromethyl)phenyl)-N-(4-((5-fluoro-4-(1-isopropyl-1H-benzo[d](1,2,3)triazol-6-yl)pyrimidin-2-yl)amino)benzyl)cyclopropane-1,1-dicarboxamide [12P] | 231 | – |
| 427 | N-(4-((5-fluoro-4-(1-isopropyl-1H-benzo[d](1,2,3)triazol-6-yl)pyrimidin-2-yl)amino)benzyl)-N-(4-(trifluoromethyl)phenyl)cyclopropane-1,1-dicarboxamide [12N] | 160 | – |
| 793 | N-(4-chlorophenyl)-N-(4-((5-fluoro-4-(1-isopropyl-1H-benzo[d](1,2,3)triazol-6-yl)pyrimidin-2-yl)amino)benzyl)cyclopropane-1,1-dicarboxamide [12D] | 63 | – |
| 101 | N-(4-cyanophenyl)-N-(4-((5-fluoro-4-(1-isopropyl-1H-benzo[d](1,2,3)triazol-6-yl)pyrimidin-2-yl)amino)benzyl)cyclopropane-1,1-dicarboxamide [12L] | 63 | – |
| 531 | N-(4-((5-fluoro-4-(1-isopropyl-1H-benzo[d](1,2,3)triazol-6-yl)pyrimidin-2-yl)amino)benzyl)-N-(3-fluorophenyl)cyclopropane-1,1-dicarboxamide [12A] | 35 | – |
| 706 | N-(4-bromophenyl)-N-(4-((5-fluoro-4-(1-isopropyl-1H-benzo[d](1,2,3)triazol-6-yl)pyrimidin-2-yl)amino)benzyl)cyclopropane-1,1-dicarboxamide [12F] | 128 | – |
| 312 | N-(4-((5-fluoro-4-(1-isopropyl-1H-benzo[d](1,2,3)triazol-6-yl)pyrimidin-2-yl)amino)benzyl)-N-(4-methoxyphenyl)cyclopropane-1,1-dicarboxamide [12H] | 80 | – |
| 325 | N-(4-((5-fluoro-4-(1-isopropyl-1H-benzo[d](1,2,3)triazol-6-yl)pyrimidin-2-yl)amino)benzyl)-N-(3-methoxyphenyl)cyclopropane-1,1-dicarboxamide [12G] | 73 | – |
| 165 | N-(4-((5-fluoro-4-(1-isopropyl-1H-benzo[d](1,2,3)triazol-6-yl)pyrimidin-2-yl)amino)benzyl)-N-(m-tolyl)cyclopropane-1,1-dicarboxamide [12I] | 42 | – |
| 498 | N-(4-((5-fluoro-4-(1-isopropyl-1H-benzo[d](1,2,3)triazol-6-yl)pyrimidin-2-yl)amino)benzyl)-N-(3-(trifluoromethyl)phenyl)cyclopropane-1,1-dicarboxamide [12M] | 177 | – |
| 459 | N-(3-chlorophenyl)-N-(4-((5-fluoro-4-(1-isopropyl-1H-benzo[d](1,2,3)triazol-6-yl)pyrimidin-2-yl)amino)benzyl)cyclopropane-1,1-dicarboxamide [12C] | 68 | – |

| Molecule | IC50 [1] [nM] | IC50 [2] [nM] | further results |
| --- | --- | --- | --- |
| N.N.[Cl][Pt][Cl] [Cisplatin, cisplatin, reference compound] | 5360 | 4910 | IC50 [3]: 5810 nM; IC50 [4]: 7160 nM; IC50 [5]: 4260 nM; IC50 [6]: 1240 nM; IC50 [7]: 8280 nM; IC50 [8]: > 10000 nM; Tumor growth inhibition (TGI) [9]: 31.14% |
